Laboratory results published in ChEMBL document CHEMBL3046848, “Synthesis and biological evaluation of novel series of thieno[2,3-d]pyrimidine derivatives as anticancer and antimicrobial agents” (2013).
Converted amounts (≈) assume the structure as drawn.

What was measured:
Assay type in all cases: functional
[1] = system: Staphylococcus aureus; assay: Antimicrobial activity against Staphylococcus aureus ATCC6538P assessed as diameter of growth inhibition zone at 1 mg/ml after 24 hr by agar cup diffusion method; conditions: read-out: IZ
[2] = system: Escherichia coli; assay: Antimicrobial activity against Escherichia coli ATCC8739 assessed as growth inhibition after 48 hr by two-fold serial dilution method; conditions: ATCC8739, 48 h
[3] = system: Candida albicans; assay: Antimicrobial activity against Candida albicans ATCC2091 assessed as diameter of growth inhibition zone at 1 mg/ml after 48 hr by agar cup diffusion method; conditions: ATCC2091, 48 h, read-out: IZ
[4] = system: Escherichia coli; assay: Antimicrobial activity against Escherichia coli ATCC8739 assessed as diameter of growth inhibition zone at 1 mg/ml after 24 hr by agar cup diffusion method; conditions: ATCC8739, 24 h, read-out: IZ
[5] = system: Pseudomonas aeruginosa; assay: Antimicrobial activity against Pseudomonas aeruginosa ATCC9027 assessed as diameter of growth inhibition zone at 1 mg/ml after 24 hr by agar cup diffusion method; conditions: ATCC9027, 24 h, read-out: IZ
[6] = system: Pseudomonas aeruginosa; assay: Antimicrobial activity against Pseudomonas aeruginosa ATCC9027 assessed as growth inhibition after 48 hr by two-fold serial dilution method; conditions: ATCC9027, 48 h
[7] = system: Staphylococcus aureus; assay: Antimicrobial activity against Staphylococcus aureus ATCC6538P assessed as growth inhibition after 48 hr by two-fold serial dilution method

Structure (SMILES)	zone of inhibition at 1000 µg/mL [1] [mm]	MIC [2] [µg/mL]	zone of inhibition at 1000 µg/mL [3] [mm]	zone of inhibition at 1000 µg/mL [4] [mm]	zone of inhibition at 1000 µg/mL [5] [mm]	MIC [6] [µg/mL]	MIC [7] [µg/mL]
CCCn1cnc2sc(C(N)=O)c(C)c2c1=O	10	125 (≈ 497 µM)	15	17	12		
Cc1c(C(N)=O)sc2ncn(-c3ccccn3)c(=O)c12	10		15	13	12		
Cc1c(C(N)=O)sc2nc(SCc3ccccc3)n(-c3ccccc3)c(=O)c12	10		15	15	12		
Cc1c(C(N)=O)sc2nc(S(C)(=O)=O)n(-c3ccccc3)c(=O)c12	11		15	16	12		
CCS(=O)(=O)c1nc2sc(C(N)=O)c(C)c2c(=O)n1-c1ccccc1	10		15	13	12		
Cc1c(C(N)=O)sc2nc(S(=O)(=O)Cc3ccccc3)n(-c3ccccc3)c(=O)c12	10		15	15	12		
Cc1c(C(N)=O)sc2nc(SCC3CO3)n(-c3ccccc3)c(=O)c12 (stereo not given)	10		15	15	17	125 (≈ 335 µM)	
Cc1c(C(N)=O)sc2nc(SCC(O)CN3CCOCC3)n(-c3ccccc3)c(=O)c12 (stereo not given)	10		15	13	12		
Cc1c(C(N)=O)sc2nc(SCC(O)CN3CCCCC3)n(-c3ccccc3)c(=O)c12 (stereo not given)	10		15	15	12		
Cc1c(C(N)=O)sc2nc(C)n(NC(=S)NCc3ccccc3)c(=O)c12	12		15	13	12		
Cc1c(C(N)=O)sc2nc(C)n(/N=c3\scc(-c4ccc(Cl)cc4)n3-c3ccccc3)c(=O)c12	10	125 (≈ 246 µM)	15	16	12		
Cc1c(C(N)=O)sc2nc(C)n(/N=c3\scc(-c4ccc(Br)cc4)n3-c3ccccc3)c(=O)c12	10		15	15	12		
Cc1c(C(N)=O)sc2nc(C)n(/N=c3\scc(-c4ccc(Cl)cc4)n3Cc3ccccc3)c(=O)c12	10		15	15	17	125 (≈ 239 µM)	
Cc1c(C(N)=O)sc2nc(C)n(/N=c3\scc(-c4ccc(Br)cc4)n3Cc3ccccc3)c(=O)c12	11		15	15	12		
Cc1c(C(N)=O)sc2nc(C)n(/N=C3\SCC(=O)N3c3ccccc3)c(=O)c12	14		16	15	12		250 (≈ 605 µM)
Cc1c(C(N)=O)sc2nc(C)n(/N=C3\SCC(=O)N3Cc3ccccc3)c(=O)c12	14		16	15	12		250 (≈ 585 µM)
